Results reported in patent US10294202B2, “Pyrrolidinones as herbicides” (FMC Corporation, priority 2013, dated 2019).

Key:
[1] = test system: wheat; assay: Test A pre-/postemergence herbicide test; type: in vivo, Triticum aestivum; details: Postemergence; for Plant response rating, Wheat: 125 g ai/ha, 0 to 100 scale, 0 is no effect, 100 is complete control; for Wheat plant response rating (0 to 100 scale, 0 is no effect, 100 is complete control): 500 g ai/ha
Procedure, shortened: (§1)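 Approximately 10 days after treatment in the greenhouse, plants were compared with untreated controls and given a 0–100 visual injury rating. Applications: preemergence directed soil spray; postemergence on 2–10 cm plants at the one- to two-leaf stage.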

[2] = test system: barnyardgrass; assay: Test B flooded paddy test; type: in vivo, Echinochloa crus-galli; details: 500 g ai/ha, Flood; scale of 0 to 100 where 0 is no effect and 100 is complete control
Procedure, shortened: (§2)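 Treatment was made at the 2-leaf stage by dosing the standing floodwater, kept 3 cm above soil level for the whole test. Greenhouse exposure lasted 13 to 15 days. Response is a visual percent rating relative to controls, where a dash indicates no test result.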

[3] = test system: giant foxtail; assay: Test A pre-/postemergence herbicide test; type: in vivo, Setaria faberii; details: for Plant response rating, Foxtail, Giant: 0 to 100 scale
Procedure, shortened: as §1

[4] = test system: pigweed; assay: Test A pre-/postemergence herbicide test; type: in vivo, Amaranthus retroflexus; details: for Plant response rating, Pigweed: 0 to 100 scale
Procedure, shortened: as §1

[5] = test system: ragweed; assay: Test A pre-/postemergence herbicide test; type: in vivo, Ambrosia elatior; details: for Plant response rating, Ragweed: 0 to 100 scale
Procedure, shortened: as §1

[6] = test system: kochia; assay: Test A pre-/postemergence herbicide test; type: in vivo, Kochia scoparia; details: for Plant response rating, Kochia: 0 to 100 scale
Procedure, shortened: as §1

[7] = test system: galium; assay: Test A postemergence herbicide test; type: in vivo, Galium aparine; details: for Plant response rating, Galium: 125 g ai/ha, 0 to 100 scale, 0 is no effect, 100 is complete control; for Galium plant response rating (0 to 100 scale, 0 is no effect, 100 is complete control): 500 g ai/ha
Procedure, shortened: (§3)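 Young potted plants in a loam–sand mix, one- to two-leaf stage and 2–10 cm tall, receive the test chemical postemergence and stay in a greenhouse for approximately 10 days. Injury is then judged by eye against untreated plants, scored 0 (none) to 100 (complete control).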

[8] = test system: ducksalad; assay: Test B flooded paddy test; type: in vivo, Heteranthera limosa; details: 500 g ai/ha, Flood; scale of 0 to 100 where 0 is no effect and 100 is complete control
Procedure, shortened: as §2

[9] = test system: barnyardgrass; assay: Test A pre-/postemergence herbicide test; type: in vivo, Echinochloa crus-galli
Procedure, shortened: as §1

[10] = test system: blackgrass; assay: Test A postemergence herbicide test; type: in vivo, Alopecurus myosuroides; details: for Plant response rating, Blackgrass: 125 g ai/ha, 0 to 100 scale, 0 is no effect, 100 is complete control; for Blackgrass plant response rating (0 to 100 scale, 0 is no effect, 100 is complete control): 500 g ai/ha
Procedure, shortened: as §3

[11] = test system: corn; assay: Test A pre-/postemergence herbicide test; type: in vivo, Zea mays; details: Postemergence; for Plant response rating, Corn: 125 g ai/ha, 0 to 100 scale, 0 is no effect, 100 is complete control; for Corn plant response rating (0 to 100 scale, 0 is no effect, 100 is complete control): 500 g ai/ha
Procedure, shortened: as §1

[12] = test system: sedge, umbrella; assay: Test B flooded paddy test; type: in vivo, Cyperus difformis; details: 500 g ai/ha, Flood; scale of 0 to 100 where 0 is no effect and 100 is complete control
Procedure, shortened: as §2

[13] = test system: ryegrass, Italian; assay: Test A pre-/postemergence herbicide test; type: in vivo, Lolium multiflorum; details: for Plant response rating, Ryegrass, Italian: 0 to 100 scale
Procedure, shortened: as §1

[14] = test system: rice; assay: Test B flooded paddy test; type: in vivo, Oryza sativa; details: 500 g ai/ha, Flood; scale of 0 to 100 where 0 is no effect and 100 is complete control
Procedure, shortened: as §2

[15] = 125 g ai/ha, visual rating, 0 no effect, 100 complete control, approximately 10 days, preemergence
[16] = Postemergence, 125 g ai/ha, 0 is no effect, 100 is complete control
[17] = preemergence, 500 g ai/ha, 0 is no effect and 100 is complete control
[18] = 125 g ai/ha, visual rating, 0 to 100 scale, 0 no effect, 100 complete control, approximately 10 days, preemergence
[19] = Postemergence, 125 g ai/ha, 0 to 100 scale, 0 is no effect, 100 is complete control
[20] = preemergence, 500 g ai/ha, 0 to 100 scale, 0 is no effect and 100 is complete control

Row | SMILES | Plant response rating, Wheat [1] | Wheat plant response rating (0 to 100 scale, 0 is no effect, 100 is complete control) [1] | Plant response rating, Barnyardgrass [2] | Plant response rating, Foxtail, Giant [3, 15] | Plant response rating, Foxtail, Giant [3, 16] | Foxtail, Giant plant response rating (0 to 100 scale, 0 is no effect, 100 is complete control) ([3]; Postemergence, 500 g ai/ha) | Plant response rating, Pigweed [4, 15] | Plant response rating, Pigweed [4, 16] | Pigweed plant response rating (0 to 100 scale, 0 is no effect, 100 is complete control) ([4]; Postemergence, 500 g ai/ha) | Plant response rating, Pigweed [4, 17] | Plant response rating, Ragweed [5, 15] | Plant response rating, Ragweed [5, 16] | Ragweed plant response rating (0 to 100 scale, 0 is no effect, 100 is complete control) ([5]; Postemergence, 500 g ai/ha) | Plant response rating, Kochia [6, 15] | Plant response rating, Kochia [6, 16] | Kochia plant response rating (0 to 100 scale, 0 is no effect, 100 is complete control) ([6]; Postemergence, 500 g ai/ha) | Plant response rating, Kochia [6, 17] | Plant response rating, Galium [7] | Galium plant response rating (0 to 100 scale, 0 is no effect, 100 is complete control) [7] | Plant response rating, Ducksalad [8] | other results
1 | O=C1NCC(c2cccc(C3CC3)c2)C1C(=O)Nc1cccc(F)c1F (racemic) [Compound 167] | 0 | 50 | 75 | 90 | 90 | 90 | 50 | 0 | 0 | 50 | 0 | 20 | 50 | 20 | 30 | 50 | 60 | 50 | 60 | 100 | Plant response rating, Foxtail, Giant ([3]; preemergence, 500 g ai/ha): 90; Plant response rating, Ragweed [5, 17]: 50; Plant response rating, Barnyardgrass [9, 18]: 90; Plant response rating, Barnyardgrass [9, 19]: 90; Barnyardgrass plant response rating (0 to 100 scale, 0 is no effect, 100 is complete control) ([9]; Postemergence, 500 g ai/ha): 90; Plant response rating, Barnyardgrass ([9]; preemergence, 500 g ai/ha, 0 to 100 scale (0 no effect, 100 complete control)): 90; Plant response rating, Blackgrass [10]: 50; Blackgrass plant response rating (0 to 100 scale, 0 is no effect, 100 is complete control) [10]: 60; Plant response rating, Corn [11]: 0; Corn plant response rating (0 to 100 scale, 0 is no effect, 100 is complete control) [11]: 70; Plant response rating, Sedge, Umbrella [12]: 0; Plant response rating, Ryegrass, Italian [13, 15]: 20; Plant response rating, Ryegrass, Italian [13, 16]: 20; Ryegrass, Italian plant response rating (0 to 100 scale, 0 is no effect, 100 is complete control) ([13]; Postemergence, 500 g ai/ha): 40; Plant response rating, Ryegrass, Italian [13, 17]: 70; Plant response rating, Rice [14]: 10
2 | O=C1NCC(c2cccc(OC(F)F)c2)C1C(=O)Nc1ccccc1Cl (centres unmarked) [Compound 229] | 0 | 0 | 50 | 90 | 80 | 90 | 0 | 0 | 0 | 0 | 0 | 20 | 60 | 0 | 10 | 60 | 70 | 60 | 70 | 100 | Plant response rating, Foxtail, Giant [3, 17]: 90; Plant response rating, Barnyardgrass [9, 18]: 70; Plant response rating, Barnyardgrass [9, 19]: 70; Barnyardgrass plant response rating (0 to 100 scale, 0 is no effect, 100 is complete control) ([9]; Postemergence, 500 g ai/ha): 80; Plant response rating, Barnyardgrass [9, 20]: 90; Plant response rating, Blackgrass [10]: 40; Blackgrass plant response rating (0 to 100 scale, 0 is no effect, 100 is complete control) [10]: 70; Plant response rating, Corn [11]: 0; Corn plant response rating (0 to 100 scale, 0 is no effect, 100 is complete control) [11]: 0; Plant response rating, Sedge, Umbrella [12]: 0; Plant response rating, Ryegrass, Italian [13, 15]: 10; Plant response rating, Ryegrass, Italian [13, 16]: 30; Ryegrass, Italian plant response rating (0 to 100 scale, 0 is no effect, 100 is complete control) ([13]; Postemergence, 500 g ai/ha): 40; Plant response rating, Ryegrass, Italian [13, 17]: 20; Plant response rating, Rice [14]: 0
3 | O=C1NCC(c2ccc(Cl)cc2)C1C(=O)Nc1ccccc1C(F)(F)F (centres unmarked) [Compound 219] | 0 | 0 | 40 | 90 | 60 | 80 | 0 | 0 | 0 | 0 | 0 | 0 | 0 | 10 | 0 | 10 | 70 | 30 | 60 | 100 | Plant response rating, Foxtail, Giant [3, 17]: 90; Plant response rating, Ragweed [5, 17]: 0; Plant response rating, Barnyardgrass [9, 18]: 30; Plant response rating, Barnyardgrass [9, 19]: 40; Barnyardgrass plant response rating (0 to 100 scale, 0 is no effect, 100 is complete control) ([9]; Postemergence, 500 g ai/ha): 50; Plant response rating, Barnyardgrass [9, 20]: 60; Plant response rating, Blackgrass [10]: 40; Blackgrass plant response rating (0 to 100 scale, 0 is no effect, 100 is complete control) [10]: 50; Plant response rating, Corn [11]: 0; Corn plant response rating (0 to 100 scale, 0 is no effect, 100 is complete control) [11]: 0; Plant response rating, Sedge, Umbrella [12]: 0; Plant response rating, Ryegrass, Italian [13, 15]: 0; Plant response rating, Ryegrass, Italian [13, 16]: 0; Ryegrass, Italian plant response rating (0 to 100 scale, 0 is no effect, 100 is complete control) ([13]; Postemergence, 500 g ai/ha): 0; Plant response rating, Ryegrass, Italian [13, 17]: 0; Plant response rating, Rice [14]: 0
